Measured values from US20100168083A1, “ADAMANTANE DERIVATIVES FOR THE TREATMENT OF THE METABOLIC SYNDROME” (priority 2006, published 2010).

Molecular target: T1, h-11βHSD1 (Homo sapiens, UniProt P28845)
T1 construct: made in house; host or cells: yeast
Assay: 11βHSD1 enzyme assay (SPA)
Assay type: biochemical
Settings: extract of yeast transformed with h-11βHSD1; 120 nM 3H-cortisone; 60 min at 30° C.
Experimental: 11βHSD1 Enzyme Assay Materials ^3H-cortisone and anti-rabbit Ig coated scintillation proximity assay (SPA) beads were purchased from Amersham Pharmacia Biotech, β-NADPH was from Sigma and rabbit anti-cortisol antibodies were from Fitzgerald. […] The test compounds were dissolved in DMSO (10 mM). All dilutions were performed in a buffer containing 50 mM TRIS-HCl (Sigma Chemical Co), 4 mM EDTA (Sigma Chemical Co), 0.1% BSA (Sigma Chemical Co), 0.01% Tween-20 (Sigma Chemical Co) and 0.005% bacitracin (Novo Nordisk A/S), pH=7.4. Optiplate 96 wells plates were supplied by Packard. The amount of ^3H-cortisol bound to the SPA beads was measured on TopCount NXT, Packard. […] The reaction was initiated by mixing the different components and was allowed to proceed under shaking for 60 min at 30° C. The reaction was stopped be the addition of 10 fold excess of a stopping buffer containing 500 μM carbenoxolone and 1 μM cortisone. Data was analysed using GraphPad Prism software.

T1 sequence (P28845 whole entry): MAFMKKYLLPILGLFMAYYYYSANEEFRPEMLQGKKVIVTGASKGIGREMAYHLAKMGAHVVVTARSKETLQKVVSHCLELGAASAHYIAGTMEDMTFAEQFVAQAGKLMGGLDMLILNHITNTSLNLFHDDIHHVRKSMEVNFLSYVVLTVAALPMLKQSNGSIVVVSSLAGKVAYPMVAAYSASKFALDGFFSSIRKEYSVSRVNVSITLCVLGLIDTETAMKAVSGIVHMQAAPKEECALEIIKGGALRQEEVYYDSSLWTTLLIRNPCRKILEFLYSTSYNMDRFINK

An IC50 of 1320 nM was found for `O=C(O)c1ccc(OCCC2CCN(C(=O)[C@]34C[C@H]5C[C@H](C[C@H](C5)C3)C4)CC2)cc1` [Example 3, 4-{2-[1-(Tricyclo[3.3.1.1.3.7]decanane-1-carbonyl)-piperidin-4-yl]-ethoxy}-benzoic acid] in this work.
An IC50 of 835 nM was found for `O=C(N1CCC(COc2ccccn2)CC1)[C@]12C[C@H]3C[C@H](C[C@H](C3)C1)C2` [Example 6] in this work.
